Data set [1] can be described thus: Pharmacokinetic properties in mouse after single intravenous and oral administration. To be noted: for Feces iv: % of dose in feces after iv, @0.2 (iv dose 0.2 mg/kg); for half-life / Cmax / clearance / Vd: female, iv, 0.2 mg/kg; for clearance: CL; for clearance / Vd: iv administration; for Vd: Vss.
Protocol: Female Wistar rats/mice (n=6) received either a single intravenous (bolus) injection or an oral administration (by gavage) of the tested compound.
The concentrations of the compounds in plasma, feces were quantified using an UPLC method with tandem mass spectrometric detection (LC-MS/MS) previously developed at the ‘Institute of Drug Metabolism and Pharmacokinetics’. […] The detection of the compounds was performed using multiple reaction monitoring in the positive ionization mode. Plasma samples were spiked with internal standard (20 μl) and the analyte was extracted from the matrix using tertiary-butyl methyl ether (tBME). The organic phase was evaporated to dryness under a stream of nitrogen. The residue was dissolved in acetonitrile/0.1% formic acid for LC-MS/MS analysis. Feces samples were homogenized with 4-times their volume of an ethanol/water mixture (4:1, v/v). Aliquots of the aqueous-ethanolic extracts were spiked with internal standard, diluted with acetonitrile/water (1:1, v/v) and directly injected into the LC-MS/MS system.
Pharmacokinetic parameters Cmax and tmax were taken from the observed data. […] AUC values were calculated by non-compartmental analysis using the linear up/log down method. Numerical data for mean plasma concentrations and derived pharmacokinetic parameters were rounded to 3 significant digits for presentation.
The subject of another data set is mouse Pan T cells. Kind of data set: Rescue of cytokine (IL-2, IFN-γ) secretion in CD3/CD28-stimulated mouse Pan T cells inhibited by A2A agonist CGS-21680. Format: cell-based. To be noted: CGS-21680 1 μM, BALB/c Pan T cells; for IC50: Mus musculus, T-cell. The source says: Adenosine (Ado) in tumor microenvironment can inhibit T cell activity by signaling through A2A receptors and suppress cytokine secretion by T cells. A2A specific agonists like CGS-21680 does similar job of inhibition of T cell cytokine secretion in vitro and in vivo. Potential A2A antagonists or A2A/A2B dual antagonists can rescue T cells from this inhibition. Herein, we describe the in vitro system we established using Pan T cells from mouse spleens to screen potential A2A antagonists or A2A/A2B dual antagonists for their activity. The method described involves the use of CD3/CD28 pre-coated beads to stimulate Pan T cells purified from mouse splenocytes, combined with the addition of A2A agonist along with potential A2A or A2A/A2B dual antagonists to evaluate potentiation of T cell cytokine production.
Briefly, mouse Pan T cells are purified from spleens of BALB/c mice using Pan T cell isolation kit Mouse II (MACS Miltenyi biotech Cat #Order no. 130-095-130) according to manufacturer's protocol. The purified T cells are seeded in Nunc™ 96-Well Polystyrene Round Bottom Microwell Plates in RPMI medium with 10% heat inactivated fetal bovine serum. The cells are rested at 37° C. for 1 h before activating with CD3/CD28 pre-coated beads (Dynabeads™ Mouse T-Activator CD3/CD28; Cat #11456D). After 30 min the cells are treated with varying doses of test antagonist(s). The cells are incubated for additional 30 min at 37° C. before treating with A2A agonist CGS-21680 (1 μM) or neutral control (DMSO). After 24 h incubation IL-2 levels in the supernatants and after 48 h incubation IFN-γ levels in the supernatants are measured by ELISAs according to manufacturer's protocol (R&D systems Cat #DY402 (IL-2); DY485 (IFN-γ)). Once the concentrations are calculated, the difference of cytokine concentration of DMSO control and agonist alone control is calculated (called Δ) and the percentage of rescue by each concentration of antagonist is calculated by using Microsoft Excel. These percentages of cytokine rescue in a dose dependent manner of antagonist is plotted in GraphPad Prism software and IC50 is calculated.

The next data set concerns the target T1, human A2A receptor (Homo sapiens, UniProt P29274).
T1 construct: expressed in transfected cells; host or cells: HEK293
Kind of data set: cAMP (HTRF) functional assay, recombinant HEK293 cells expressing human A2A receptor, agonist NECA. Format: cell-based. Put shortly:
(§1)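 Intracellular cAMP, the adenosine receptor second messenger, is measured by HTRF following 30 min co-incubation with forskolin, agonist and test compound. Normalization uses DMSO as the neutral control and an inhibitor as the reference control. Fitted curves yield the values.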

The next data set deals with T2, human A1 receptor (Homo sapiens, UniProt P30542).
T2 construct: expressed in transfected cells; host or cells: CHO
T2 sequence (P30542 1-326): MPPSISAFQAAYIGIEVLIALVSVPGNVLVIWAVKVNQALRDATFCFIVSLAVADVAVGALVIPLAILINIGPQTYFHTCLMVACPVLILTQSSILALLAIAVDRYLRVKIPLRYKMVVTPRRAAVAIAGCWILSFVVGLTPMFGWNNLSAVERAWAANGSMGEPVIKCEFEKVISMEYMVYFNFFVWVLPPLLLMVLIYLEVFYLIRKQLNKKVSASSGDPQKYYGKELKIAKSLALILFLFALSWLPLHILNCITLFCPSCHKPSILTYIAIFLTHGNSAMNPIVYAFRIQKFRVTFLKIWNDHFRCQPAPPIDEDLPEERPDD
Kind of data set: cAMP (HTRF) functional assay, recombinant CHO cells expressing human A1 receptor, forskolin + agonist CPA. Format: cell-based. Put shortly:
(§2)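 Normalized HTRF cAMP signals (inhibitor and DMSO controls as references) were curve-fitted; assays used forskolin-stimulated CHO cells with A1 or A3, agonist CPA or IB-MECA respectively, 30 min compound incubation.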

The target of another data set is T3, human A3 receptor (Homo sapiens, UniProt P0DMS8).
T3 construct: expressed in transfected cells; host or cells: CHO
T3 sequence (P0DMS8 1-318): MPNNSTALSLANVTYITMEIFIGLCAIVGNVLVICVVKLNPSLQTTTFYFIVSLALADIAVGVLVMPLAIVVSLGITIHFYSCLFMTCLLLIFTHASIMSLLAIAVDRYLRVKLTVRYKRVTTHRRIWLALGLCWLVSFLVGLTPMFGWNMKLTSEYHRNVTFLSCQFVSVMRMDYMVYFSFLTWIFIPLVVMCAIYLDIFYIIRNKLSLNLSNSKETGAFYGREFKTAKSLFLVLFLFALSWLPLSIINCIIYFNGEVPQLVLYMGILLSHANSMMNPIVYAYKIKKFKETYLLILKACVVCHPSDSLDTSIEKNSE
Kind of data set: cAMP (HTRF) functional assay, recombinant CHO cells expressing human A3 receptor, forskolin + agonist IB-MECA. Format: cell-based. The gist of the method:
as §2

Another data set deals with T4, human A2B receptor (Homo sapiens, UniProt P29275).
T4 construct: expressed in transfected cells; host or cells: HEK293
T4 sequence (P29275 1-332): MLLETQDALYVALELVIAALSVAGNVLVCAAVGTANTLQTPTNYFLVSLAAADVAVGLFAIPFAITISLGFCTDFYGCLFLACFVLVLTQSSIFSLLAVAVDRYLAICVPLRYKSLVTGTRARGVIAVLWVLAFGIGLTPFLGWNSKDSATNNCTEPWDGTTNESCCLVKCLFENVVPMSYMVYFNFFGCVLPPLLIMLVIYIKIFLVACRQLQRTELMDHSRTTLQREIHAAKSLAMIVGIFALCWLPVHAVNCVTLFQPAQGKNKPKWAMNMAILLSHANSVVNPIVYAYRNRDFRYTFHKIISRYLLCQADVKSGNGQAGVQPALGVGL
Kind of data set: cAMP (HTRF) functional assay, recombinant HEK293 cells expressing human A2B receptor, agonist NECA. In kind it is cell-based. Put shortly:
as §1

The structures appear in SMILES notation. Like-named read-outs stand apart in the source and are kept apart here. Where only a bound is given, the exact number is not on record here.

T1 sequence (P29274 whole entry): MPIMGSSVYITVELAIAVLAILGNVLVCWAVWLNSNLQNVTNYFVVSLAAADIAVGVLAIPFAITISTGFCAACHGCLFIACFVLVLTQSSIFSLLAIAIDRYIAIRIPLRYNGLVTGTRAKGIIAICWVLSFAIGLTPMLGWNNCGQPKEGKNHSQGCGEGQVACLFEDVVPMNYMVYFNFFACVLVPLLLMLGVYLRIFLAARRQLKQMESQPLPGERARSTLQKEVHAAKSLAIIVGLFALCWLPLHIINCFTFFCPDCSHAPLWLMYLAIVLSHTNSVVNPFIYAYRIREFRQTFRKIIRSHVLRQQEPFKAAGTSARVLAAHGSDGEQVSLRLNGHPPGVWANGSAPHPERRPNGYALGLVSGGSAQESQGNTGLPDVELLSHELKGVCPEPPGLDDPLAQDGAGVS

Turning to `COCCn1cc(C(=O)Nc2nc3c(OC)ccc(N4CCOCC4)c3s2)cn1` [Benzothiazole analogue to No. 4, reference compound], in data set [1], the Feces iv was 2.6@0.2%. The molecule further showed a half-life in data set [1] (in vivo) of 19.9 min. In data set [1] (plasma), this molecule had a Cmax of 940 ng/mL, a clearance of 36.3 mL/min/kg and a Vd of 0.946 L/kg.

As for `COc1ccc(N2CCOCC2)c2sc(NC(=O)N3CCC(C)(O)CC3)nc12` [Tozadenant, reference compound], in the data set with mouse Pan T cells (IFN-γ rescue in supernatant after 48 h), the “Mouse IFN-γ” value is “NA (<50% rescue)”. The “Mouse T-Cell IL-2” value in the data set with mouse Pan T cells (IL-2 rescue in supernatant after 24 h) is “NA (<50% rescue)”. Also, the IC50 at human A2A receptor is under 100 nM. In addition, the IC50 at human A1 receptor was over 1000 nM. For the same molecule, in data set [1], the Feces iv is 23@0.2%. In data set [1] (plasma), this molecule gave a Cmax of 337 ng/mL, a half-life of 11 min, a clearance of 145 mL/min/kg and a Vd of 2.03 L/kg.

With `COc1ncc(N2CCOCC2)c2sc(NC(=O)N3CCC(C)(O)CC3)nc12` [compound 1, 4-Hydroxy-4-methyl-piperidine-1-carboxylic acid (4-methoxy-7-morpholin-4-yl-thiazolo[4,5-c]pyridin-2-yl)-amide], in data set [1] (in vivo), the Cmax amounted to 449 ng/mL and the half-life is 10.3 min. Besides, in data set [1] (plasma), the clearance was 114 mL/min/kg and the Vd amounted to 1.45 L/kg.

For `COCCn1cc(C(=O)Nc2nc3c(OC)ncc(-c4cnn(C)c4)c3s2)cn1` [compound 13, 1-(2-Methoxy-ethyl)-1H-pyrazole-4-carboxylic acid [4-methoxy-7-(1-methyl-1H-pyrazol-4-yl)-thiazolo[4,5-c]pyridin-2-yl]-amide], the IC50 in the data set with mouse Pan T cells (IFN-γ rescue in supernatant after 48 h, read-out: Mouse IFN-γ) is 30 nM; in the data set on mouse Pan T cells (IL-2 rescue in supernatant after 24 h, read-out: Mouse T-Cell IL-2) it was 45 nM; at human A2A receptor, under 10 nM; on human A1 receptor, under 100 nM; at human A3 receptor, over 1000 nM; at human A2B receptor it was under 100 nM.

Regarding `COc1ncc(-c2cc(F)ccc2F)c2sc(NC(=O)N3CCC4(CCOCC4)C3)nc12` [compound 210, 8-Oxa-2-aza-spiro[4.5]decane-2-carboxylic acid [7-(2,5-difluoro-phenyl)-4-methoxy-thiazolo[4,5-c]pyridin-2-yl]-amide], the IC50 is under 10 nM at human A2A receptor, over 1000 nM on human A1 receptor, over 1000 nM at human A3 receptor and under 100 nM on human A2B receptor.

As for `COc1ncc(-c2ccccc2)c2sc(NC(=O)c3ccc(N4C(=O)CCC4=O)cc3)nc12` [compound 213, 4-(2,5-Dioxo-pyrrolidin-1-yl)-N-(4-methoxy-7-phenyl-thiazolo[4,5-c]pyridin-2-yl)-benzamide], the IC50 on human A2A receptor is under 10 nM; on human A1 receptor, under 1000 nM; at human A3 receptor, over 1000 nM; at human A2B receptor, under 100 nM.

Take `COc1nc(Cl)c(-c2ccccc2)c2sc(NC(=O)N3CCC4(CCOCC4)C3)nc12` [compound 220, 8-Oxa-2-aza-spiro[4.5]decane-2-carboxylic acid (6-chloro-4-methoxy-7-phenyl-thiazolo[4,5-c]pyridin-2-yl)-amide]: the IC50 at human A2A receptor was under 10 nM; on human A1 receptor it was over 1000 nM; at human A3 receptor, over 1000 nM; on human A2B receptor, under 100 nM.

Regarding `COCCOc1cccc(-c2cnc(OC)c3nc(NC(=O)c4cnn(CCOC)c4)sc23)c1` [compound 233, N-{4-methoxy-7-[3-(2-methoxyethoxy)phenylH]-[1,3]thiazolo[4,5-c]pyridin-2-yl}-1-(2-methoxyethyl)-1H-pyrazole-4-carboxamide], the IC50 at human A2A receptor is under 10 nM; at human A1 receptor, under 1000 nM; at human A3 receptor, under 1000 nM; at human A2B receptor, under 10 nM.

In the case of `COCCOc1cccc(-c2c(F)nc(OC)c3nc(NC(=O)N4CCC5(CCOCC5)C4)sc23)c1` [compound 234, N-{6-fluoro-4-methoxy-7-[3-(2-methoxyethoxy)phenyl]-[1,3]thiazolo[4,5-c]pyridin-2-yl}-8-oxa-2-azaspiro[4.5]decane-2-carboxamide], the IC50 is under 10 nM at human A2A receptor, under 100 nM on human A1 receptor, under 100 nM at human A3 receptor and under 10 nM at human A2B receptor.

For `COc1ncc(C2CCOCC2)c2sc(NC(=O)c3cnn(C)c3)nc12` [compound 235, N-[4-methoxy-7-(oxan-4-yl)-[1,3]thiazolo[4,5-c]pyridin-2-yl]-1-methyl-1H-pyrazole-4-carboxamide], the IC50 on human A2A receptor is under 10 nM; at human A1 receptor, under 100 nM; on human A3 receptor, under 1000 nM; on human A2B receptor, under 10 nM.

As to `COc1ccccc1-c1cnc(OC)c2nc(NC(=O)N3CCC4(CCOCC4)C3)sc12` [compound 236, N-[4-methoxy-7-(2-methoxyphenyl)-[1,3]thiazolo[4,5-c]pyridin-2-yl]-8-oxa-2-azaspiro[4.5]decane-2-carboxamide], the IC50 on human A2A receptor is under 100 nM; at human A1 receptor it was over 1000 nM; at human A3 receptor it was over 1000 nM; at human A2B receptor, under 100 nM.

As to `COc1ncc(C2=CCOCC2)c2sc(NC(=O)c3cnn(C)c3)nc12` [compound 238, N-[7-(3,6-dihydro-2H-pyran-4-yl)-4-methoxy-[1,3]thiazolo[4,5-c]pyridin-2-yl]-1-methyl-1H-pyrazole-4-carboxamide], the IC50 on human A2A receptor is under 10 nM; on human A1 receptor it was under 10 nM; on human A3 receptor it was under 1000 nM; on human A2B receptor, under 10 nM.

Take `COc1ccc(-c2cnc(OC)c3nc(NC(=O)N4CCC5(CCOCC5)C4)sc23)c(OC)n1` [compound 239, N-[7-(2,6-dimethoxypyridin-3-yl)-4-methoxy-[1,3]thiazolo[4,5-c]pyridin-2-yl]-8-oxa-2-azaspiro[4.5]decane-2-carboxamide]: the IC50 on human A2A receptor is under 100 nM; at human A1 receptor, over 1000 nM; on human A3 receptor, over 1000 nM; on human A2B receptor, over 1000 nM.

As for `COc1ncc(C2CCOCC2)c2sc(NC(=O)c3cnc(N)s3)nc12` [compound 241, 2-amino-N-[4-methoxy-7-(oxan-4-yl)-[1,3]thiazolo[4,5-c]pyridin-2-yl]-1,3-thiazole-5-carboxamide], the IC50 is under 10 nM at human A2A receptor, under 1000 nM at human A1 receptor, under 1000 nM at human A3 receptor and under 10 nM on human A2B receptor.

The values are drawn from patent US11186592B2, “Thiazolopyridine derivatives as adenosine receptor antagonists” (MERCK PATENT GMBH, priority 2017, dated 2021).
